Measurements: ChEMBL document CHEMBL1159246, “Further Structural Studies on the Petroformynes” (J Nat Prod, 1995)

System: Artemia salina
Assay: Toxicity in Artemia salina after 24 hrs
Format: organism-based
Conditions: in vivo

Going from `C#C/C=C\CCCCCCCCCCCCCC/C=C\CC/C=C\C#CC(O)C#CCCCC/C=C\CCCCCC/C=C/C(O)C#C` (centres undefined) [ISOPETROFORMYNE 4] to `C#CCCCCCCCCCCCCCCCC/C=C\CC/C=C\C#CC(O)C#CCCCC/C=C\CCCCCC/C=C/C(O)C#C` (centres undefined) [ISOPETROFORMYNE 3], the LD50 falls from 0.6 ppm to 0.26 ppm.

Going from `C#CC(=O)/C=C/CC/C=C\CCCC/C=C\CCC#CC(O)C#C/C=C/CC/C=C\CCCCCCCCCCCCC/C=C/C(=O)C#C` (centres undefined) to `C#CC(=O)/C=C/CC/C=C\CCCC/C=C\CCC#CC(O)C#C/C=C/CC/C=C\CCCCCCCCCCCCC/C=C/C(O)C#C` (centres undefined) [PETROFORMYNE 8], the LD50 falls from 5 ppm to 0.77 ppm.

Compared with `C#CC(=O)/C=C/CCCCCC/C=C\CCCCC#CC(O)C#C/C=C/CC/C=C\CCCCCCCCCCCCC/C=C/C(=O)C#C` (centres undefined), `C#C/C=C\CCCCCCCCCCCCCC/C=C\CCCCC#CC(O)C#CCCCC/C=C\CCCCCC/C=C/C(=O)C#C` (centres undefined) is higher in LD50: 0.18 ppm for the first, 0.5 ppm for the second.

Going from `C#CCCCCCCCCCCCCCCCC/C=C\CC/C=C\C#CC(O)C#CCCCC/C=C\CCCCCCCCC(O)C#C` (centres undefined) to `C#CCCCCCCCCCCCCCCCC/C=C\CC/C=C/C#CC(=O)C#CCCCC/C=C\CCCCCC/C=C/C(O)C#C` (centres undefined), the LD50 falls from 6.8 ppm to 1 ppm.

For `C#CCCCCCCCCCCCCCCCC/C=C\CCCCC#CC(=O)C#CCCCC/C=C\CCCCCC/C=C/C(O)C#C` (centres undefined), the LD50 was 6.3 ppm.
